Results published in patent US11000487B2, “Compositions and methods for the treatment of chronic pain” (CELLIX BIO PRIVATE LIMITED, priority 2016, dated 2021).
Values after ≈ are worked out from the molar mass of the structure shown. Where two headings read alike, the source gives them in different places.

Key:
[1] = comparison among long-chain fatty acids; cited from earlier work
[2] = tested on: oral pathogenic microorganisms; details: n-6 fatty acids GLA; cited from earlier work
Candida Species [3] = details: cited from earlier work
Candida Species [4] = assay: minimum inhibitory concentration against Candida; format: cell-based; details: conversion of 0.45 μmoles/ml
C. albicans = details: cited from earlier work

| Compound | antimicrobial activity among the long-chain fatty acids [1] | bactericidal concentration [2] | MIC (Candida Species [3]) | MIC (Candida Species [4]) | activity against C. albicans (C. albicans) |
| --- | --- | --- | --- | --- | --- |
| CCCCC/C=C\C/C=C\C/C=C\CCCCC(=O)O [GLA, gamma linoleic acid] | greatest antimicrobial activity | 25 µg/mL | – | – | – |
| CCCCC/C=C\C/C=C\C/C=C\C/C=C\CCCC(=O)O [arachidonic acid] | greatest antimicrobial activity | – | – | – | – |
| CCCCC/C=C\C/C=C\CCCCCCCC(=O)O [linoleic acid] | greatest antimicrobial activity | – | 450 µM (≈ 126 µg/mL) | 0.13 µg/mL (≈ 0.464 µM) | < 40% |
| CCCCCCCCCCCCCCCC(=O)O [palmitic acid] | greatest antimicrobial activity | – | – | – | – |
| CCCCCC/C=C\CCCCCCCC(=O)O [palmitoleic acid] | greatest antimicrobial activity | – | – | – | – |
